We go through nine compounds from US10513521B2, “Compositions and methods for inhibiting BMP” (The Brigham and Women's Hospital, Inc., priority 2014, dated 2019).

For one assay, the target named is T1, ALK2 (Homo sapiens, UniProt Q04771).
T1 sequence (Q04771 21-509): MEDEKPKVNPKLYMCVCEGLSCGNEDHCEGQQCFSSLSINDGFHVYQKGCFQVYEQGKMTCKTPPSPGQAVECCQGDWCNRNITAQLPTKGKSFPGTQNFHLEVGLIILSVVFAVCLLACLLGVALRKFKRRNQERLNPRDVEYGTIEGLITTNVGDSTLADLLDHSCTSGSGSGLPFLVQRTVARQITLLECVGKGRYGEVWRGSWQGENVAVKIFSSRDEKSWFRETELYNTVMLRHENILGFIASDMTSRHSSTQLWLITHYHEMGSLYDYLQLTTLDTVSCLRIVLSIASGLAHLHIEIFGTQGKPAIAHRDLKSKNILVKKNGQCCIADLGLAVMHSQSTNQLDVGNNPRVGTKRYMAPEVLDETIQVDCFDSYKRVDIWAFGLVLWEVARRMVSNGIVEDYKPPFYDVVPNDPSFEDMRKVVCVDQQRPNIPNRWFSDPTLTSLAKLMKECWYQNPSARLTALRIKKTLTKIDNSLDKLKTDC
Nature of the assay: TR-FRET enzymatic ALK kinase assay, ALK2.

In a further assay the target is ALK6 (Homo sapiens, UniProt O00238). Description: TR-FRET enzymatic ALK kinase assay, ALK6.
ALK6, sequence (O00238 14-502): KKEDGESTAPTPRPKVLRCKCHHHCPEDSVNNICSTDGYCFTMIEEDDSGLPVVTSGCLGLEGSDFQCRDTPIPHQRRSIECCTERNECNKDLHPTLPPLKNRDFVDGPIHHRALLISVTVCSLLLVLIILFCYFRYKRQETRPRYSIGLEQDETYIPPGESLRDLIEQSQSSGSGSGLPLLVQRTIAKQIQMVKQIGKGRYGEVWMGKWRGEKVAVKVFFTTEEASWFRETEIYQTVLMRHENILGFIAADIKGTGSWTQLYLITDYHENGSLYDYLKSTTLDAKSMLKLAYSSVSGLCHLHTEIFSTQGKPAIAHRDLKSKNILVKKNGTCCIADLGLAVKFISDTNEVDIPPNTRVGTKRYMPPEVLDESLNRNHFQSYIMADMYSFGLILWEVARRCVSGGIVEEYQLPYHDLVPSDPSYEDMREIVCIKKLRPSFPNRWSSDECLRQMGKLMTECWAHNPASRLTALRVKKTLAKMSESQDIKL
A further assay addresses T2, ALK5 (Homo sapiens, UniProt P36897).
T2 sequence (P36897 34-503): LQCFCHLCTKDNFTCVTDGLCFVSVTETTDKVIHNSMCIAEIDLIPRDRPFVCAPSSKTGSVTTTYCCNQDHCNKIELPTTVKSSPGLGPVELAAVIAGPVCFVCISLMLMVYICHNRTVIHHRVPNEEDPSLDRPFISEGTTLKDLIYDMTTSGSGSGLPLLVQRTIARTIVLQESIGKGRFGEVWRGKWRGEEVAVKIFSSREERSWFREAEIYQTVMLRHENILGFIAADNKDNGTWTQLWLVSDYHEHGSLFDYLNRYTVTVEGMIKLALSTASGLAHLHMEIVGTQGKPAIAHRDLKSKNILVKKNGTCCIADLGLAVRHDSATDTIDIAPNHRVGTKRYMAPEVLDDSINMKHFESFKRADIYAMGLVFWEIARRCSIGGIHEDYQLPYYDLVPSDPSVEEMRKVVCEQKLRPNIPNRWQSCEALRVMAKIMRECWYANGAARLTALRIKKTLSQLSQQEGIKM
Nature of the assay: TR-FRET enzymatic ALK kinase assay, ALK5. A general note: TR-FRET usually uses a lanthanide donor and a delayed reading to cut background.

Another assay concerns the target ALK1 (Homo sapiens, UniProt P37023). Description: TR-FRET enzymatic ALK kinase assay, ALK1.
Another assay concerns the target ALK3 (Homo sapiens, UniProt P36894). Nature of the assay: TR-FRET enzymatic ALK kinase assay, ALK3.
A further assay concerns the target T3, ALK4 (Homo sapiens, UniProt P36896).
T3 sequence (P36896 24-505): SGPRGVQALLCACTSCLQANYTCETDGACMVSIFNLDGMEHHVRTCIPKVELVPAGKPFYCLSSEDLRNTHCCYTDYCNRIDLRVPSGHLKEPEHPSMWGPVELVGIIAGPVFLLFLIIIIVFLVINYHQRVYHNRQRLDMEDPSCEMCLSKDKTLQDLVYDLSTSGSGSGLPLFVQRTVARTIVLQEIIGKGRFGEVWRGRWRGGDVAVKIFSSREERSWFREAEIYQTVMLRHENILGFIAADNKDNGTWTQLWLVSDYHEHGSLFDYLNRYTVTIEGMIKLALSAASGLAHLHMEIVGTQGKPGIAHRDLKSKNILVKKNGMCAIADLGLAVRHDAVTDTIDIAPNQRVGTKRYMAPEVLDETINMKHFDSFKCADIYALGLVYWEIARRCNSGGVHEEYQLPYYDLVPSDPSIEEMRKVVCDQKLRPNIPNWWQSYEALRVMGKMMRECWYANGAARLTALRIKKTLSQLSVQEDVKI
Nature of the assay: TR-FRET enzymatic ALK kinase assay, ALK4.

Each structure is given as a SMILES string.

ALK3, sequence (P36894 24-532): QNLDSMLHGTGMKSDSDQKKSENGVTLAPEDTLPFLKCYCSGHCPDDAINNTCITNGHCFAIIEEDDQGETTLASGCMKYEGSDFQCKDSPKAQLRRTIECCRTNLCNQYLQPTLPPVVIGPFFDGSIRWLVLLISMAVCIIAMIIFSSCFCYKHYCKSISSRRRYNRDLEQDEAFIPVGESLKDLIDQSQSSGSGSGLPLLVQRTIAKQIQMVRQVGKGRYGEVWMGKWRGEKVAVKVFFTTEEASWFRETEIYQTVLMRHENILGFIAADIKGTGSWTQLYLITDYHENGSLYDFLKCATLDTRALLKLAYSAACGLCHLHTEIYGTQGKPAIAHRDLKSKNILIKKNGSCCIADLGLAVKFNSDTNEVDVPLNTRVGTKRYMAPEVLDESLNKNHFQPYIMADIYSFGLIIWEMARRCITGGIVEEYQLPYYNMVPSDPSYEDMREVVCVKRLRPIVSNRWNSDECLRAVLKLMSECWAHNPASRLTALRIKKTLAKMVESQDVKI
ALK1, sequence (P37023 22-503): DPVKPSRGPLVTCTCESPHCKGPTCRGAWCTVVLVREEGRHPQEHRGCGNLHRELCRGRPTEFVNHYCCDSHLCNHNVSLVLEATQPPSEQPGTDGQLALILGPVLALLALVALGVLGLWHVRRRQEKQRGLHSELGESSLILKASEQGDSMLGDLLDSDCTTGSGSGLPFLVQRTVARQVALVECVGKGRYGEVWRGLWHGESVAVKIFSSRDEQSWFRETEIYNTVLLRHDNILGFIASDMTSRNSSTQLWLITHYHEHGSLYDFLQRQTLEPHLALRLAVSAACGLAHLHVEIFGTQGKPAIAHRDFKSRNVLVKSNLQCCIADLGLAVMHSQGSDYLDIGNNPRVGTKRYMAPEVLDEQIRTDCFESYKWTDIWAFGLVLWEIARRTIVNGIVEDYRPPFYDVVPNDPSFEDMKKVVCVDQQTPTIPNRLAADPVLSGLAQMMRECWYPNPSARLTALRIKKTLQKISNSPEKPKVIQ
Method for ALK1: (§1) Briefly, the ALKs enzymatic assay was initiated by dispense 2.5 μl enzyme in 1× kinase reaction buffer. The assay plate was then added with compounds followed by incubation at room temperature for 10 minutes. Then 2.5 μl/well substrate was added.
Method for ALK2: as §1
Method for ALK3: as §1
Method for ALK4: as §1
Method for ALK5: Six ALK kinase enzyme assays were developed for determination of compound activities on ALK1, ALK2, ALK3, ALK4, ALK5 and ALK6.
as §1
Method for ALK6: as §1

Consider `CC(=O)c1ccc(-c2cnn3cc(-c4ccc(N5[C@H](C)CNC[C@@H]5C)cc4)cnc23)c2ccccc12` [Compound 27, 1-(4-(6-(4-((2R,6S)-2,6-dimethylpiperazin-1-yl)phenyl)pyrazolo[1,5-a]pyrimidin-3-yl)naphthalen-1-yl)ethanone], for which the IC50 – broadly, the concentration needed to halve the response being measured – against ALK2 was 19 nM; on ALK6 it was 622 nM; on ALK5, 13500 nM; at ALK1, 109 nM; at ALK3, 224 nM; at ALK4, 4030 nM.

`C[C@@H]1CNC[C@H](C)N1c1ccc(-c2cnc3c(-c4cccc5c(-c6nn[nH]n6)cccc45)cnn3c2)cc1` [Compound 28, 3-(5-(1H-tetrazol-5-yl)naphthalen-1-yl)-6-(4-((2R,6S)-2,6-dimethylpiperazin-1-yl)phenyl)pyrazolo[1,5-a]pyrimidine]: the IC50 on ALK2 worked out at 23 nM; at ALK6, 113 nM; at ALK1, 133 nM; against ALK3, 168 nM.

On to `CC(O)c1ccc(-c2cnn3cc(-c4ccc(N5[C@H](C)CNC[C@@H]5C)cc4)cnc23)c2ccccc12` (stereo partly drawn) [Compound 29, 1-(4-(6-(4-((2R,6S)-2,6-dimethylpiperazin-1-yl)phenyl)pyrazolo[1,5-a]pyrimidin-3-yl)naphthalen-1-yl)ethanol], for which the IC50 is 14 nM against ALK2; 294 nM against ALK6; 5370 nM on ALK5; 20 nM against ALK1; 84 nM on ALK3; 3540 nM at ALK4.

In the case of `C[C@@H]1CNC[C@H](C)N1c1ccc(-c2cnc3c(-c4ccc(C(=O)C(F)(F)F)c5ccccc45)cnn3c2)cc1` [Compound 30, 1-(4-(6-(4-((2R,6S)-2,6-dimethylpiperazin-1-yl)phenyl)pyrazolo[1,5-a]pyrimidin-3-yl)naphthalen-1-yl)-2,2,2-trifluoroethanone], the 50% inhibitory concentration (IC50) came to 206 nM at ALK2; 2380 nM at ALK6; 22900 nM at ALK5; 305 nM against ALK1; 1610 nM at ALK3; 7980 nM at ALK4.

Consider `Cc1cc(S(N)(=O)=O)ccc1-c1cnn2cc(-c3ccc(N4[C@H](C)CNC[C@@H]4C)cc3)cnc12` [Compound 36, 4-(6-(4-((2R,6S)-2,6-dimethylpiperazin-1-yl)phenyl)pyrazolo[1,5-a]pyrimidin-3-yl)-3-methylbenzenesulfonamide], for which the IC50 against ALK2 turned out to be 3040 nM; at ALK1, 9480 nM.

As for `Cc1cc(-c2cnn3cc(-c4ccc(N5[C@H](C)CNC[C@@H]5C)cc4)cnc23)ccc1S(N)(=O)=O` [Compound 37, 4-(6-(4-((2R,6S)-2,6-dimethylpiperazin-1-yl)phenyl)pyrazolo[1,5-a]pyrimidin-3-yl)-2-methylbenzenesulfonamide], on ALK1, it took 811 nM to reach half-maximal inhibition (IC50).

On ALK1, `C[C@@H]1CNC[C@H](C)N1c1ccc(-c2cnc3c(-c4ccc(S(N)(=O)=O)cc4)cnn3c2)cc1` [Compound 38, 4-(6-(4-((2R,6S)-2,6-dimethylpiperazin-1-yl)phenyl)pyrazolo[1,5-a]pyrimidin-3-yl)benzenesulfonamide] registered an IC50 of 1790 nM.

With `CC(N)c1ccc(-c2cnc3c(-c4ccc(S(N)(=O)=O)c5ccccc45)cnn3c2)cc1` (centres unmarked) [Compound 189, 4-(6-(4-(1-aminoethyl)phenyl)pyrazolo[1,5-a]pyrimidin-3-yl)naphthalene-1-sulfonamide], the IC50 at ALK6 is more than 10000 nM; at ALK5, more than 10000 nM; at ALK1, 350 nM; on ALK4, more than 10000 nM.

In the case of `c1ccc2c(-c3cnn4cc(-c5ccc(N6CCNCC6)cc5)cnc34)ccnc2c1` [Compound A, reference compound], the “activity in the higher ATP concentrations (concentration-response curves)” value on ALK2 (ALK2, in the presence of 10, 100, or 1,000 µM ATP, FIG. 3) is reported as “reduced”; on ALK1 (ALK1, in the presence of 10, 100, or 1,000 µM ATP, FIG. 3), “reduced”.
